The values below come from patent US20150259331A1, “PROTOZOAN PARASITE GROWTH INHIBITORS” (Northeastern University, priority 2014, published 2015).

One experiment relates to P. falciparum W2. Nature of the experiment: P. falciparum W2 assay. The format is cell-based. The following applies: strain W2, read-out: P. falciparum W2 (EC50).
In another experiment the test system is L. major promastigote. Nature of the experiment: L. major promastigote assay. The experiment is classed as cell-based.
In another experiment the test system is P. falciparum D6. Kind of experiment: P. falciparum D6 assay. The settings on record: strain D6. The experiment is classed as cell-based.
Experiment [1] relates to T. brucei brucei Lister 427. Kind of experiment: Trypanosome replication assay. The format is cell-based, Trypanosoma brucei brucei. The following applies: 48 h, 48 h, values ±7%. Here is the method:
Then 2 μL of DMSO (control) or different concentrations of drugs prepared from 200× DMSO stocks were added to the cultures. Cells were incubated at 37° C. for 48 h and counted with a hemocytometer. […] All experiments were repeated thrice in independent studies where each dose was administered in duplicate (total n=6). HepG2 Cell Toxicity Assay. The 384 well MTT cytotoxicity assay is a modification of the MTT method described by Ferrari et al. optimized for 384-well throughput, with modifications described below.

The next experiment concerns P. falciparum C235. Nature of the experiment: P. falciparum C235 assay. The format is cell-based. The settings on record: read-out: P. falciparum C235 (EC50).
Another experiment has as its system HepG2 cells. Nature of the experiment: HepG2 cell toxicity (MTT) assay. The experiment is classed as cell-based. Here is the method:
Then 2 μL of DMSO (control) or different concentrations of drugs prepared from 200× DMSO stocks were added to the cultures. […] All experiments were repeated thrice in independent studies where each dose was administered in duplicate (total n=6). HepG2 Cell Toxicity Assay. The 384 well MTT cytotoxicity assay is a modification of the MTT method described by Ferrari et al. optimized for 384-well throughput, with modifications described below.
HepG2 Cell Toxicity assay. The 384 well MTT cytotoxicity assay is a modification of the MTT method described by Ferrari et al.^1 ENREF—26_ENREF—26_ENREF—26 optimized for 384 well throughput. […] 4.25 μL of diluted test compound was then added to the 38.3 μL of media in each well providing a 10 fold final dilution of compound. […] After a 48 hour incubation period, 8 μL of a 1.5 mg/ml solution of MTT diluted in complete MEM media was added to each well. All plates were subsequently incubated in the dark for 1 hour at room temperature. After incubation, the media and drugs in each well was removed by shaking plate over sink, the plates are then left to dry in hood for 15 minutes. […] Plates are put on a 3-D rotator for 15-30 minutes. Absorbance was determined in all wells using a Tecan iControl 1.6 Infinite plate reader.

For a further experiment, the system named is T. cruzi. Kind of experiment: T. cruzi growth inhibition. The settings on record: for inhibition at 10 µM: read-out: T. cruzi % inh at 10 μM. The experiment is classed as cell-based, Trypanosoma cruzi.
In the next experiment the test system is L. major amastigote. Nature of the experiment: L. major amastigote assay. The experiment is classed as cell-based.
[2] abbreviates: Trypanosoma brucei, concentration giving 50% inhibition of growth of T brucei brucei Lister 427 cells, read-out: Tbb EC50.
[3] abbreviates: Plasmodium falciparum, strain C235.
Where [4] appears, read: Homo sapiens, HepG2, 48 h, MTT, 48 hour incubation, read-out: HepG2 IC50.
[5] abbreviates: Trypanosoma brucei, read-out: Tbb EC50, concentration giving 50% inhibition of growth of T brucei brucei Lister 427 cells.
The mark [6] stands for this setting: Homo sapiens, HepG2, 48 h, read-out: HepG2 IC50, MTT, 48 hour incubation.

Structures can show the parent of a compound that is named as a salt. Where two headings read alike, the source gives them in different places. Bounds are passed on as bounds.

For orientation: IC50 means the concentration needed to halve the response being measured.

Turning to `COc1cccc(COc2ccc(Nc3ncnc4ccc(-c5ccc(S(=O)(=O)N6CCOCC6)cc5)cc34)cc2Cl)c1` [Compound 20k, N-(3-Chloro-4-((3-methoxybenzyl)oxy)phenyl)-6-(4-(morpholinosulfonyl)phenyl)quinazolin-4-amine Hydrochloride], the EC50 in the experiment with P. falciparum W2 (Plasmodium falciparum) is 0.69 µM; in the experiment on L. major promastigote (Leishmania major), 15 µM; in the experiment with P. falciparum D6 (Plasmodium falciparum) it was 0.23 µM; in experiment [1] (setting [2]), 1.43 µM; in experiment [1] (concentration giving 50% inhibition of growth of T brucei brucei Lister 427 cells, listed as NEU-567, Hydrochloride, read-out: Tbb EC50), 1.4 µM; in the experiment with P. falciparum C235 (setting [3]) it was 0.35 µM. For the same compound, the EC50 with L. major amastigote (Leishmania major) was found to be 15 µM. Also, the IC50 in the experiment with HepG2 cells (setting [4]) is more than 15 µM. For the same compound, the inhibition at 10 µM in the experiment with T. cruzi (Trypanosoma cruzi) stood at 5%.

As for `O=C(c1cccc(-c2ccc3ncnc(Nc4ccc(OCc5cccc(F)c5)c(Cl)c4)c3c2)c1)N1CCCCC1` [Compound 23k, (3-(4-((3-Chloro-4-((3-fluorobenzyl)oxy)phenyl)amino)-quinazolin-6-yl)phenyl)(piperidin-1-yl)methanone], the EC50 was 0.96 µM in the experiment on P. falciparum W2 (Plasmodium falciparum); 3.5 µM in the experiment with L. major promastigote (Leishmania major); 0.52 µM in the experiment on P. falciparum D6 (Plasmodium falciparum); 0.14 µM in experiment [1] (setting [5]); 0.57 µM with P. falciparum C235 (setting [3]); more than 50 µM with T. cruzi (Trypanosoma cruzi). Further, the EC50 in the experiment on L. major amastigote (Leishmania major) was 3.5 µM. Also, the IC50 with HepG2 cells (setting [4]) was more than 6 µM.

With `O=S(=O)(c1ccc(-c2ccc3ncnc(Nc4ccc(OCc5ccc(C(F)(F)F)c(F)c5)c(Cl)c4)c3c2)cc1)N1CCOCC1` [Compound 20l, N-(3-Chloro-4-((3-fluoro-4-(trifluoromethyl)benzyl)oxy)-phenyl)-6-(4-(morpholinosulfonyl)phenyl)quinazolin-4-amine Hydrochloride], the EC50 was determined as 1.11 µM in the experiment with P. falciparum W2 (Plasmodium falciparum); 14 µM with L. major promastigote (Leishmania major); 0.57 µM in the experiment on P. falciparum D6 (Plasmodium falciparum); 0.54 µM in experiment [1] (setting [2]); 0.64 µM in the experiment on P. falciparum C235 (setting [3]); 2.5 µM with L. major amastigote (Leishmania major). The IC50 with HepG2 cells (setting [4]) was more than 15 µM. In addition, in the experiment on T. cruzi (Trypanosoma cruzi), the inhibition at 10 µM was 21%.

For `COc1cc(Nc2ncnc3ccc(-c4ccc(S(=O)(=O)N5CCOCC5)cc4)cc23)ccc1OCc1cccc(F)c1` [Compound 20o, N-(4-((3-Fluorobenzyl)oxy)-3-methoxyphenyl)-6-(4-(morpholinosulfonyl)phenyl)quinazolin-4-amine], the EC50 is 0.65 µM in the experiment with P. falciparum W2 (Plasmodium falciparum); more than 15 µM in the experiment with L. major promastigote (Leishmania major); 0.44 µM with P. falciparum D6 (Plasmodium falciparum); 1.88 µM in experiment [1] (setting [2]); 1.9 µM in experiment [1] (concentration giving 50% inhibition of growth of T brucei brucei Lister 427 cells, listed as NEU-570, read-out: Tbb EC50); 0.6 µM with P. falciparum C235 (setting [3]). This compound also registered an EC50 in the experiment on L. major amastigote (Leishmania major) of more than 15 µM. In the experiment on HepG2 cells (setting [4]), the IC50 was more than 15 µM. For the same compound, in the experiment with T. cruzi (Trypanosoma cruzi), the inhibition at 10 µM was 2%.

On to `c1ccc(COc2ccc(Nc3ncnc4ccc(-c5cccc(N6CCOCC6)c5)cc34)cc2)cc1` [Compound 23n, N-(4-(Benzyloxy)phenyl)-6-(3-morpholinophenyl)-quinazolin-4-amine], for which the EC50 in the experiment on P. falciparum W2 (Plasmodium falciparum) is 20 µM; with L. major promastigote (Leishmania major) it was 2.7 µM; in the experiment with P. falciparum D6 (Plasmodium falciparum), 20 µM; in experiment [1] (setting [2]) it was 0.18 µM; with P. falciparum C235 (setting [3]) it was 20 µM; with L. major amastigote (Leishmania major), more than 15 µM. The IC50 with HepG2 cells (setting [4]) was more than 20 µM. Besides, the inhibition at 10 µM in the experiment on T. cruzi (Trypanosoma cruzi) is 37%.

Take `O=S(=O)(c1ccc(-c2ccc3ncnc(Nc4ccc(OCc5cccc(F)c5)c(Cl)c4)c3c2)cc1)N1CCNCC1` [Compound 10s]: the EC50 in the experiment with P. falciparum W2 is 0.2 µM; with L. major promastigote, more than 15 µM; in the experiment on P. falciparum D6, 0.094 µM; in experiment [1] (concentration giving 50% inhibition of growth of T brucei brucei Lister 427 cells, read-out: Tbb EC50), 0.28 µM; with P. falciparum C235 (strain C235) it was 0.12 µM; in the experiment on T. cruzi, 0.79 µM. The compound also came in with an EC50 in the experiment on L. major amastigote of 0.8 µM. In addition, in the experiment with HepG2 cells (MTT, 48 hour incubation, read-out: HepG2 IC50), the IC50 was determined as 3.32 µM.

Consider `CS(=O)(=O)c1cccc(-c2ccc3ncnc(Nc4ccc(OCc5cccc(F)c5)c(Cl)c4)c3c2)c1` [Compound 10u, N-(3-Chloro-4-((3-fluorobenzyl)oxy)phenyl)-6-(3-(methylsulfonyl)phenyl)quinazolin-4-amine], for which the EC50 came out at 1.3 µM in the experiment on P. falciparum W2 (Plasmodium falciparum); 3.5 µM in the experiment with L. major promastigote (Leishmania major); 0.52 µM with P. falciparum D6 (Plasmodium falciparum); 3.21 µM in experiment [1] (setting [5]); 3.2 µM in experiment [1] (read-out: Tbb EC50, concentration giving 50% inhibition of growth of T brucei brucei Lister 427 cells, listed as NEU-633); 0.62 µM in the experiment with P. falciparum C235 (setting [3]). The EC50 in the experiment on T. cruzi (Trypanosoma cruzi) stood at 5 µM; with L. major amastigote (Leishmania major), 4.7 µM. Also, the 50% inhibitory concentration (IC50) in the experiment with HepG2 cells (setting [4]) is more than 15 µM.

On to `O=S(=O)(c1ccc(-c2ccc3ncnc(Nc4ccc(OCc5cccc(Br)c5)c(Cl)c4)c3c2)cc1)N1CCOCC1` [Compound 20f, N-(4-((3-Bromobenzyl)oxy)-3-chlorophenyl)-6-(4-(morpholinosulfonyl)phenyl)quinazolin-4-amine Hydrochloride], for which the EC50 in the experiment on P. falciparum W2 (Plasmodium falciparum) amounted to 0.44 µM; with L. major promastigote (Leishmania major) it was 14 µM; in the experiment with P. falciparum D6 (Plasmodium falciparum), 0.2 µM; in experiment [1] (setting [2]), 0.68 µM; in the experiment on P. falciparum C235 (setting [3]), 0.41 µM; in the experiment with L. major amastigote (Leishmania major), 0.47 µM. The IC50 in the experiment with HepG2 cells (setting [4]) is more than 15 µM. For the same compound, in the experiment on T. cruzi (Trypanosoma cruzi), the inhibition at 10 µM turned out to be 7%.

Turning to `O=S(=O)(c1cccc(-c2ccc3ncnc(Nc4ccc(OCc5cccc(F)c5)c(Cl)c4)c3c2)c1)N1CCOCC1` [Compound 10k, N-(3-Chloro-4-((3-fluorobenzyl)oxy)phenyl)-6-(3-(morpholinosulfonyl)phenyl)quinazolin-4-amine], the EC50 with P. falciparum W2 (Plasmodium falciparum) was 0.4 µM; with L. major promastigote (Leishmania major) it was more than 15 µM; with P. falciparum D6 (Plasmodium falciparum) it was 0.28 µM; in experiment [1] (setting [5]), 0.33 µM; in the experiment on P. falciparum C235 (setting [3]) it was 0.29 µM; in the experiment with T. cruzi (Trypanosoma cruzi), 1.7 µM. For the same compound, the EC50 in the experiment on L. major amastigote (Leishmania major) is more than 15 µM. In addition, the concentration for half-maximal inhibition (IC50) in the experiment with HepG2 cells (setting [6]) is more than 15 µM; in the experiment with HepG2 cells (read-out: HepG2 IC50, MTT, 48 hour incubation), more than 20 µM.

With `Clc1cc(Nc2ncnc3ccc(-c4cccc(N5CCOCC5)c4)cc23)ccc1OCc1ccccc1` [Compound 23m, N-(4-(Benzyloxy)-3-chlorophenyl)-6-(3-morpholinophenyl)-quinazolin-4-amine], the EC50 was determined as 1.7 µM in the experiment on P. falciparum W2 (Plasmodium falciparum); 6.6 µM in the experiment with L. major promastigote (Leishmania major); 0.79 µM in the experiment with P. falciparum D6 (Plasmodium falciparum); 0.23 µM in experiment [1] (setting [2]); 0.72 µM in the experiment on P. falciparum C235 (setting [3]); 1.3 µM in the experiment with T. cruzi (Trypanosoma cruzi). The EC50 in the experiment with L. major amastigote (Leishmania major) was more than 15 µM. Besides, in the experiment with HepG2 cells (setting [4]), the IC50 is more than 20 µM.

Regarding `CN(C)S(=O)(=O)c1ccccc1-c1ccc2ncnc(Nc3ccc(OCc4cccc(F)c4)c(Cl)c3)c2c1` [Compound 10v, 2-(4-((3-Chloro-4-((3-fluorobenzyl)oxy)phenyl)amino)-quinazolin-6-yl)-N,N-dimethylbenzenesulfonamide], the EC50 with P. falciparum W2 (Plasmodium falciparum) is 1.8 µM; in the experiment with L. major promastigote (Leishmania major) it was 2.8 µM; in the experiment with P. falciparum D6 (Plasmodium falciparum) it was 0.82 µM; in experiment [1] (setting [2]), 1.04 µM; in experiment [1] (concentration giving 50% inhibition of growth of T brucei brucei Lister 427 cells, listed as NEU-619, read-out: Tbb EC50), 1 µM; with P. falciparum C235 (Plasmodium falciparum) it was 1.1 µM. Moreover, the EC50 is 1.5 µM in the experiment with T. cruzi (Trypanosoma cruzi) and more than 15 µM in the experiment on L. major amastigote (Leishmania major). The IC50 in the experiment with HepG2 cells (setting [6]) was more than 15 µM.

As for `O=S(=O)(c1ccc(-c2ccc3ncnc(Nc4ccc(O)c(Cl)c4)c3c2)cc1)N1CCOCC1` [Compound 20c, 2-Chloro-4-((6-(4-(morpholinosulfonyl)phenyl)quinazolin-4-yl)amino)phenol Hydrochloride], the EC50 is 19 µM in the experiment on P. falciparum W2 (Plasmodium falciparum); more than 15 µM in the experiment with L. major promastigote (Leishmania major); 12 µM in the experiment on P. falciparum D6 (Plasmodium falciparum); 1.06 µM in experiment [1] (setting [2]); 1.1 µM in experiment [1] (concentration giving 50% inhibition of growth of T brucei brucei Lister 427 cells, listed as NEU-550, Hydrochloride, read-out: Tbb EC50); 19 µM in the experiment on P. falciparum C235 (setting [3]). The EC50 with L. major amastigote (Leishmania major) is more than 15 µM. Also, in the experiment on HepG2 cells (setting [4]), the IC50 is more than 15 µM. In the experiment with T. cruzi (Trypanosoma cruzi), the inhibition at 10 µM is 14%.
